Test [1] deals with T1, HMGCR (TM1-8)-GFP (Cricetulus griseus, UniProt P00347).
T1 sequence (P00347 1-346): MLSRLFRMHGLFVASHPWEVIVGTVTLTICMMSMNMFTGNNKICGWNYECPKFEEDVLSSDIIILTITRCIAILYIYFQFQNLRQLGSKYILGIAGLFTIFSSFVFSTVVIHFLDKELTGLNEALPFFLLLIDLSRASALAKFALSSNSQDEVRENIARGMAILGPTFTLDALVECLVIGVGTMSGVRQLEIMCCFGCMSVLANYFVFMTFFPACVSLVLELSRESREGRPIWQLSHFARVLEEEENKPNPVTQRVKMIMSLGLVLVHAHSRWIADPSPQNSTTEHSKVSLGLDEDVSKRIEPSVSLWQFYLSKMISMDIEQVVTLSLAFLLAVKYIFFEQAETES

For test [2], the target named is T1, HMGCR (TM1-8)-GFP. In words: HMGCR (TM1-8)-GFP fluorescent assay (high-content imaging) in CHG cells. To be noted: for effect on HMGCR (TM1-8)-GFP intensity: CHG cells.
[3] abbreviates: 16 h, read-out: HMGCR (TM1-8)-GFP fluorescent intensity, mean.
Where [4] appears, read: read-out: Mean (HMGCR (TM1-8)-GFP signal relative to 0 μM = 100).

Read-outs that look alike come from different tables or passages of the source.

In test [1], `CC(C)CCC[C@@H](C)[C@H]1CC[C@H]2[C@@H]3CC=C4C(C)(C)[C@@H](O)CC[C@]4(C)[C@H]3CC[C@]12C` [Compound 7, 4,4-Dimethyl cholesterol] showed a DC50 of 14.6 µM. Also, in test [2] (setting [3]), the remaining activity at 0.01 µM came out at 101%, the remaining activity at 0.1 µM worked out at 104%, the remaining activity at 0.3 µM amounted to 92.8% and the remaining activity at 1 µM came to 83.5%. In addition, in test [2] (setting [3]), the remaining activity at 3 µM worked out at 71.9%, the remaining activity at 10 µM was found to be 56.7%, the remaining activity at 20 µM came to 47.9% and the remaining activity at 30 µM is 35.9%.
`CCC1(CC)C2=CCC3C(CC[C@@]4(C)C3CC[C@@H]4[C@H](C)CCCC(C)C)[C@@]2(C)CC[C@@H]1O` (stereo partly shown) [Compound 8]: in test [2] (setting [3]), the remaining activity at 0.1 µM is 90.5%, the remaining activity at 0.3 µM was determined as 79.5%, the remaining activity at 1 µM amounted to 82.7% and the remaining activity at 3 µM worked out at 83.2%. In test [2] (setting [3]), the remaining activity at 10 µM worked out at 89.3%, the remaining activity at 20 µM turned out to be 91.4% and the remaining activity at 30 µM stood at 93.9%. The “effect on HMGCR (TM1-8)-GFP intensity” value in test [2] (16 h) is reported as “did not decrease the HMGCR (TM1-8)-GFP intensity”.
As for `C=CCC1(CC=C)C2=CCC3C(CC[C@@]4(C)C3CC[C@@H]4[C@H](C)CCCC(C)C)[C@@]2(C)CC[C@@H]1O` (stereo partly shown) [Compound 9], in test [2] (setting [3]), the remaining activity at 0.1 µM was 95.3%, the remaining activity at 0.3 µM was 92.7%, the remaining activity at 1 µM is 80.9% and the remaining activity at 3 µM is 90.8%. For the same compound, in test [2] (setting [3]), the remaining activity at 10 µM amounted to 93.7%, the remaining activity at 20 µM came to 88.7% and the remaining activity at 30 µM was found to be 90.8%. Besides, the “effect on HMGCR (TM1-8)-GFP intensity” value in test [2] (16 h) is “did not decrease the HMGCR (TM1-8)-GFP intensity”.
Regarding `CC(C)CCC[C@@H](C)[C@H]1CCC2C3CC=C4C5(CCCCC5)[C@@H](O)CC[C@]4(C)C3CC[C@@]21C` (stereo partly shown) [Compound 10], in test [2] (setting [3]), the remaining activity at 0.1 µM was 100%, the remaining activity at 0.3 µM was 106%, the remaining activity at 1 µM was 92.7% and the remaining activity at 3 µM worked out at 102%. In addition, in test [2] (setting [3]), the remaining activity at 10 µM was 103%, the remaining activity at 20 µM turned out to be 98.6% and the remaining activity at 30 µM was found to be 101%. Besides, the “effect on HMGCR (TM1-8)-GFP intensity” value in test [2] (16 h) is listed as “did not decrease the HMGCR (TM1-8)-GFP intensity”.
With `CCC1(CCOC)C2=CCC3C(CCC4(C)C(C(C)CCCC(C)C)CCC34)C2(C)CCC1O` (stereo not shown) [Compound 11], in test [2] (setting [3]), the remaining activity at 0.1 µM is 90.8%, the remaining activity at 0.3 µM is 97.1%, the remaining activity at 1 µM stood at 100% and the remaining activity at 3 µM was determined as 91.7%. For the same compound, in test [2] (setting [3]), the remaining activity at 10 µM turned out to be 93.3%, the remaining activity at 20 µM stood at 97.4% and the remaining activity at 30 µM is 95.4%. The “effect on HMGCR (TM1-8)-GFP intensity” value in test [2] (16 h) was “did not decrease the HMGCR (TM1-8)-GFP intensity”.
On to `COCCC1(CCOC)C2=CCC3C(CC[C@@]4(C)C3CC[C@@H]4[C@H](C)CCCC(C)C)[C@@]2(C)CC[C@@H]1O` (stereo partly shown) [Compound 14], for which, in test [2] (setting [3]), the remaining activity at 0.1 µM is 90.2%, the remaining activity at 0.3 µM turned out to be 107%, the remaining activity at 1 µM came to 99.6% and the remaining activity at 3 µM is 93.4%. In test [2] (setting [3]), the remaining activity at 10 µM came to 99.4%, the remaining activity at 20 µM was found to be 106% and the remaining activity at 30 µM is 98.6%. Also, in test [2] (16 h), the “effect on HMGCR (TM1-8)-GFP intensity” value was “did not decrease the HMGCR (TM1-8)-GFP intensity”.
`CC(C)CCC[C@@H](C)[C@H]1CCC2C3C(CC[C@@]21C)[C@@]1(C)CC[C@H](O)C(C)(C)C1=C[C@H]3N=[N+]=[N-]` (stereo partly shown) [Compound 18]: in test [2] (setting [3]), the remaining activity at 0.1 µM amounted to 99.5%, the remaining activity at 0.3 µM was 103%, the remaining activity at 1 µM was found to be 103% and the remaining activity at 3 µM is 99.4%. Moreover, in test [2] (setting [3]), the remaining activity at 10 µM was 96.7%, the remaining activity at 20 µM was determined as 98.8% and the remaining activity at 30 µM is 93%.
With `CC(C)CCC[C@@H](C)[C@H]1CCC2C3C(CC[C@@]21C)[C@@]1(C)CC[C@H](O)C(C)(C)C1=C[C@H]3N` (stereo partly shown) [Compound 19], in test [2] (setting [3]), the remaining activity at 0.1 µM came to 90.2%, the remaining activity at 0.3 µM stood at 107%, the remaining activity at 1 µM was determined as 99.6% and the remaining activity at 3 µM came out at 93.4%. Also, in test [2] (setting [3]), the remaining activity at 10 µM was determined as 99.4%, the remaining activity at 20 µM was 106% and the remaining activity at 30 µM was 99.6%.
As to `CC(=O)N[C@@H]1C=C2C(C)(C)[C@@H](O)CC[C@]2(C)C2CC[C@@]3(C)C(CC[C@@H]3[C@H](C)CCCC(C)C)C21` (stereo partly shown) [Compound 22], in test [2] (setting [3]), the remaining activity at 0.1 µM came out at 97.3%, the remaining activity at 0.3 µM amounted to 91.4%, the remaining activity at 1 µM was 89.7% and the remaining activity at 3 µM stood at 101%. Besides, in test [2] (setting [3]), the remaining activity at 10 µM was found to be 97.5%, the remaining activity at 20 µM was found to be 97.9% and the remaining activity at 30 µM is 93.5%.
For `CC(C)CCC[C@@H](C)[C@H]1CCC2C3C(=O)C=C4C(C)(C)[C@@H](O)CC[C@]4(C)C3CC[C@@]21C` (stereo partly shown) [Compound 33], in test [2] (setting [3]), the remaining activity at 0.1 µM was found to be 93%, the remaining activity at 0.3 µM was 97.3%, the remaining activity at 1 µM is 94.4% and the remaining activity at 3 µM was 96.3%. Also, in test [2] (setting [3]), the remaining activity at 10 µM was 95.2% and the remaining activity at 20 µM is 85%.
Compound `CC(C)CCC[C@@H](C)[C@H]1CCC2C3C(=NO)C=C4C(C)(C)[C@@H](O)CC[C@]4(C)C3CC[C@@]21C` (stereo partly shown) [Compound 34] returned a DC50 in test [1] of 60.8 µM. In test [2] (setting [3]), the remaining activity at 0.03 µM was found to be 99.1%, the remaining activity at 0.1 µM came out at 103%, the remaining activity at 0.3 µM came out at 93.6% and the remaining activity at 1 µM stood at 75.2%. Further, in test [2] (setting [3]), the remaining activity at 3 µM was determined as 65.6%, the remaining activity at 10 µM was 62%, the remaining activity at 20 µM stood at 65.8% and the remaining activity at 30 µM amounted to 62.1%.
As for `CC(C)CCC[C@@H](C)[C@H]1CC[C@H]2[C@@H]3[C@@H](O)C=C4C(C)(C)[C@@H](O)CC[C@]4(C)[C@H]3CC[C@]12C` [Compound 35, 4,4-Dimethyl 7β-hydroxyl cholesterol], in test [1], the DC50 was 3.6 µM. Besides, in test [2] (setting [3]), the remaining activity at 0.01 µM stood at 100%, the remaining activity at 0.03 µM worked out at 104%, the remaining activity at 0.1 µM is 87.1% and the remaining activity at 0.3 µM came out at 83.8%. Moreover, in test [2] (setting [3]), the remaining activity at 1 µM was determined as 68.2%, the remaining activity at 3 µM was 54.5%, the remaining activity at 10 µM was 37% and the remaining activity at 20 µM was 20%.
As to `CC(C)CCC[C@@H](C)[C@H]1CCC2C3C(CC[C@@]21C)[C@@]1(C)CC[C@H](O)C(C)(C)C1=C[C@H]3O` (stereo partly shown) [Compound 36], the DC50 in test [1] was 11.9 µM. Moreover, in test [2] (setting [3]), the remaining activity at 0.01 µM was 106%, the remaining activity at 0.03 µM amounted to 91.7%, the remaining activity at 0.1 µM was 108% and the remaining activity at 0.3 µM was 91.3%. In test [2] (setting [3]), the remaining activity at 1 µM is 93.6%, the remaining activity at 3 µM came to 69.8%, the remaining activity at 10 µM is 58.6% and the remaining activity at 20 µM came out at 37.2%.
Take `COC(=O)CC[C@@H](C)C1CCC2C3C(CC[C@@]21C)[C@@]1(C)CC[C@H](O)C(C)(C)C1=C[C@@H]3O` (stereo partly shown) [Compound 49]: in test [1], the DC50 came to 6.67 µM. Further, in test [2] (setting [4]), the remaining activity at 0.156 µM amounted to 93%, the remaining activity at 0.313 µM is 100%, the remaining activity at 0.625 µM was determined as 100% and the remaining activity at 1.25 µM was 93%. In test [2] (setting [4]), the remaining activity at 2.5 µM amounted to 78.9%, the remaining activity at 5 µM worked out at 58.3% and the remaining activity at 10 µM worked out at 37.6%.
`C[C@H](CCC(=O)O)C1CCC2C3C(CC[C@@]21C)[C@@]1(C)CC[C@H](O)C(C)(C)C1=C[C@@H]3O` (stereo partly shown) [Compound 50]: in test [2] (setting [4]), the remaining activity at 0.156 µM stood at 98.8%, the remaining activity at 0.313 µM stood at 106%, the remaining activity at 0.625 µM came to 105% and the remaining activity at 1.25 µM came to 105%. Further, in test [2] (setting [4]), the remaining activity at 2.5 µM came to 103%, the remaining activity at 5 µM was 100% and the remaining activity at 10 µM was 98.3%.
In test [1], `C[C@H](CCCO)C1CCC2C3C(CC[C@@]21C)[C@@]1(C)CC[C@H](O)C(C)(C)C1=C[C@@H]3O` (stereo partly shown) [Compound 51] yielded a DC50 of 9.08 µM. Besides, in test [2] (setting [4]), the remaining activity at 0.156 µM amounted to 98.3%, the remaining activity at 0.313 µM worked out at 102%, the remaining activity at 0.625 µM was found to be 101% and the remaining activity at 1.25 µM turned out to be 92.8%. Moreover, in test [2] (setting [4]), the remaining activity at 2.5 µM worked out at 82.2%, the remaining activity at 5 µM is 67.8% and the remaining activity at 10 µM came to 47.7%.
Take `COCCC[C@@H](C)C1CCC2C3C(CC[C@@]21C)[C@@]1(C)CC[C@H](O)C(C)(C)C1=C[C@@H]3O` (stereo partly shown) [Compound 55]: the DC50 in test [1] was 2.29 µM. Besides, in test [2] (setting [4]), the remaining activity at 0.156 µM amounted to 100%, the remaining activity at 0.313 µM came out at 100%, the remaining activity at 0.625 µM was found to be 83% and the remaining activity at 1.25 µM came to 63.8%. In test [2] (setting [4]), the remaining activity at 2.5 µM stood at 43.1%, the remaining activity at 5 µM stood at 28.5% and the remaining activity at 10 µM came out at 21.9%.
Turning to `COCCCCC[C@@H](C)C1CCC2C3C(CC[C@@]21C)[C@@]1(C)CC[C@H](O)C(C)(C)C1=C[C@@H]3O` (stereo partly shown) [Compound 95], in test [1], the DC50 is 2.34 µM.
`C[C@H](CCCCCO)C1CCC2C3C(CC[C@@]21C)[C@@]1(C)CC[C@H](O)C(C)(C)C1=C[C@@H]3O` (stereo partly shown) [Compound 96] came in with a DC50 in test [1] of 2.96 µM.

Source of the values: paper PMC6277434, “Discovery of a potent HMG-CoA reductase degrader that eliminates statin-induced reductase accumulation and lowers cholesterol” (Nature Communications, 2018).
